Twelve molecules from PubChem BioAssay (NCI) can be followed below.

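Results reflect a 48-hour exposure of cells in 96-well plates to compound at five concentrations. GI50 = concentration required for 50% inhibition of growth. Definition used: TGI = concentration required for complete inhibition of growth.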

Holding throughout (experiment): growth of human tumour cells (NCI), 48 h
In assay [1] the test system is HCC-2998 colon.
Assay [2] relates to MALME-3M melanoma.
Assay [3] deals with NCI-H23 lung.
The subject of assay [4] is PC-3 prostate.
The subject of assay [5] is SK-OV-3 ovarian.
For assay [6], the system named is UACC-62 melanoma.
In assay [7] the test system is A498 renal.
In assay [8] the test system is K-562 leukemia.

`COC(=O)C1=C(C)NC(C)=C(C(=O)OC)C1c1cccc(/[N+]([O-])=C/c2ccccc2)c1`: the TGI in assay [1] is over 100 µM; in assay [2], 29.9 µM; in assay [3], over 100 µM; in assay [4] it was over 100 µM; in assay [5], over 100 µM; in assay [6] it was over 100 µM.

Regarding `CCCCCCC(=O)NC1=C(N2CC2)C(=O)C(NC(=O)CCCCCC)=C(N2CC2)C1=O`, the GI50 in assay [7] is 2.62 µM; in assay [2], 1.6 µM; in assay [4] it was 1.61 µM; in assay [5] it was 13 µM; in assay [6] it was 1.87 µM. Further, the TGI in assay [7] was over 100 µM; in assay [2] it was 4.98 µM; in assay [4], over 100 µM; in assay [5] it was over 100 µM; in assay [6] it was over 100 µM.

As to `O=[N+]([O-])c1ccc2c(c1)C(N1CCN(CCO)CC1)Cc1ccc(F)cc1S2` (centres undefined), the TGI in assay [7] was 25.8 µM; in assay [1], 8.83 µM; in assay [8], 12.6 µM; in assay [3] it was 29 µM; in assay [4], 15.4 µM; in assay [5], 31 µM. The molecule also showed a TGI in assay [6] of 12.3 µM.

On to `CN1C(=O)N(C)C2C1NC(=S)N2/N=C/C=C/c1ccccc1[N+](=O)[O-]` (centres undefined), for which the GI50 was 0.513 µM in assay [7]; 2.56 µM in assay [1]; over 100 µM in assay [2]; 2.75 µM in assay [3]; 0.967 µM in assay [4]; 1.18 µM in assay [5]. Besides, the GI50 in assay [6] was 0.419 µM. Further, the TGI was 7.26 µM in assay [7]; over 100 µM in assay [1]; over 100 µM in assay [2]; over 100 µM in assay [3]; over 100 µM in assay [4]; over 100 µM in assay [5]. The same molecule gave a TGI in assay [6] of over 100 µM.

As for `COC(=O)[C@]1(C)CCC[C@@]2(C)C3=C(CC[C@H]12)C[C@@H](CC(OC(C)=O)OC(C)=O)[C@@H](C)C3`, the GI50 in assay [7] was 11.5 µM; in assay [1] it was 9.32 µM; in assay [8] it was 14.7 µM; in assay [3], 9.15 µM; in assay [4], 11.4 µM; in assay [5], 20.7 µM. Besides, in assay [6], the GI50 is 8.82 µM. For the same molecule, the TGI is 19.9 µM in assay [7]; 16.3 µM in assay [1]; over 50 µM in assay [8]; 16.7 µM in assay [3]; over 29 µM in assay [4]; over 50 µM in assay [5]. For the same molecule, the TGI in assay [6] was 19.4 µM.

Consider `CCCCCCCCN(CCCCCCCC)CC(O)c1cc(-c2ccccc2)nc2ccc(OC)cc12` (centres undefined), for which the GI50 is over 100 µM in assay [7]; over 100 µM in assay [1]; over 100 µM in assay [2]; 43.4 µM in assay [3]; 47.7 µM in assay [4]; over 100 µM in assay [5]. For the same molecule, the GI50 in assay [6] was 21.5 µM. Further, the TGI in assay [7], in assay [1], in assay [2], in assay [3], in assay [4] and in assay [5] was over 100 µM each time. The TGI in assay [6] was over 100 µM.

For the molecule `COC(=O)C1=C(C)NC(=S)NC1c1ccc(N(CCCl)CCCl)cc1Cl` (centres undefined), the GI50 in assay [7] is 46.9 µM. Further, the TGI in assay [7] is over 100 µM; in assay [8] it was over 57.5 µM; in assay [2], 41.7 µM; in assay [3], over 62.1 µM; in assay [4], over 82.8 µM; in assay [5], over 100 µM. Besides, in assay [6], the TGI stood at 16.1 µM.

In the case of `CN(C(=O)C(C)(C)C)c1ccccc1I(=O)=O`, the GI50 in assay [7] was over 100 µM; in assay [1], over 100 µM; in assay [8] it was 14.1 µM; in assay [2], 27.4 µM; in assay [3], over 100 µM; in assay [5], over 100 µM. Moreover, in assay [6], the GI50 was over 100 µM. Also, the TGI in assay [7] is over 100 µM; in assay [1] it was over 100 µM; in assay [8], 35.5 µM; in assay [2], over 100 µM; in assay [3], over 100 µM; in assay [5] it was over 100 µM. The same molecule registered a TGI in assay [6] of over 100 µM.

As to `Cc1ccc(NC(=O)COc2ccc(Cl)cc2)cc1Cl`, the TGI was over 100 µM in assay [7]; over 100 µM in assay [8]; over 100 µM in assay [2]; 74.9 µM in assay [3]; over 100 µM in assay [4]; over 100 µM in assay [5]. In addition, in assay [6], the TGI is over 100 µM.

As to `CC(=O)C(CN1C(=O)c2ccccc2C1=O)C(C)=O`, the TGI in assay [7], in assay [1], in assay [8], in assay [3], in assay [4] and in assay [5] was over 100 µM throughout. For the same molecule, the TGI in assay [6] is over 100 µM.

For `O=C(Nc1ccc(Cl)c(Cl)c1)c1ccc(NC2=C(Cl)C(=O)N(Cc3ccccc3)C2=O)cc1`, the GI50 in assay [7] is 17.6 µM; in assay [8] it was 2.34 µM; in assay [2], 11.2 µM; in assay [3], 14.2 µM; in assay [4], 3.55 µM; in assay [5], 21.5 µM. In assay [6], the GI50 was 4.93 µM. Further, the TGI came to 36.8 µM in assay [7]; 5.93 µM in assay [8]; 24.8 µM in assay [2]; 27.4 µM in assay [3]; 13.4 µM in assay [4]; 44 µM in assay [5]. The molecule also had a TGI in assay [6] of 17.7 µM.

On to `NC1CC(=O)c2c(-c3cccs3)sc(-c3cccs3)c21` (centres undefined), for which the GI50 is 77.8 µM in assay [7]; 25 µM in assay [8]; 37.8 µM in assay [2]; 23.1 µM in assay [3]; 30.8 µM in assay [4]; over 100 µM in assay [5]. In addition, the GI50 in assay [6] was 55.9 µM. Moreover, the TGI in assay [7] is over 100 µM; in assay [8] it was over 100 µM; in assay [2], over 100 µM; in assay [3], 57.6 µM; in assay [4], over 100 µM; in assay [5] it was over 100 µM. This molecule also returned a TGI in assay [6] of over 100 µM.
